Results from US20240269155A1, “METHODS AND USES OF BORON COMPOUNDS IN THE TREATMENT OF NONTUBERCULOUS MYCOBACTERIUM INFECTIONS AND PHARMACEUTICAL COMPOSITIONS FOR TREATMENT OF SAME” (priority 2022, published 2024).
Like-named read-outs stand apart in the source and are kept apart here.

Columns and labels:
M. scrofulaceum = assay: MIC determination (CLSI M24-A2); format: cell-based, Mycobacterium scrofulaceum
Procedure: (§1) The in vitro activity of the parent boron compound described herein was assessed by standard testing procedures such as the determination of minimum inhibitory concentration (MIC) as described in Clinical and Laboratory Standards Institute (CLSI) document M24-A2. Lower MIC values indicate high antibacterial activity, while higher MIC values indicate a reduced antibacterial activity. Generally, MIC values of about ≤2 mg/L indicate a good therapeutic (i.e., suitable for therapy) potency for antibacterial drugs, while MIC values of ≥8 mg/L indicate a lack of therapeutically useful activity for a test compound.
(§2) (MIC ranges from 0.063-2 mg/L).

M. gordonae = assay: MIC determination (CLSI M24-A2); format: cell-based, Mycobacterium gordonae
Procedure: as §1, §2

M. avium = assay: MIC determination (CLSI M24-A2); format: cell-based, Mycobacterium avium
Procedure: as §1, §2

M. intercelleulare = assay: MIC determination (CLSI M24-A2); format: cell-based, Mycobacterium intercelleulare
Procedure: as §1, §2

M. abscessus = assay: MIC determination (CLSI M24-A2); format: cell-based, Mycobacterium abscessus
Procedure: as §1, §2

M. fortuitum = assay: MIC determination (CLSI M24-A2); format: cell-based, Mycobacterium fortuitum
Procedure: as §1, §2

M. peregrinum = assay: MIC determination (CLSI M24-A2); format: cell-based, Mycobacterium peregrinum
Procedure: as §1, §2

M. smegmatis = assay: MIC determination (CLSI M24-A2); format: cell-based, Mycobacterium smegmatis
Procedure: as §1, §2

M. massiliense = assay: MIC determination (CLSI M24-A2); format: cell-based, Mycobacterium massiliense
Procedure: as §1, §2

Mycobacteria pathogens = assay: MIC against mycobacteria pathogens, summary over species; format: cell-based, nontuberculous Mycobacterium; conditions: for MIC range: M. intercelleulare, M. fortuitum, M. peregrinum, M. smegmatis, M. massiliense
[1] = tested on: clinical isolates of M. abscessus complex; assay: MIC against clinical isolates of M. abscessus complex; format: cell-based, M. abscessus and M. massiliense
[2] = tested on: clinical isolates of M. abscessus complex; assay: MBC against clinical isolates of M. abscessus complex; format: cell-based, M. abscessus and M. massiliense; conditions: for Classification: from MBC/MIC ratio
M. abscessus CIP108297 = assay: M. abscessus mouse lung infection model; format: in vivo, BALB/c mice
Procedure: To establish the efficacy of the compounds described herein in vivo, an M. abscessusmouse lung infection model was performed. Groups of BALB/c mice (The mice were randomly divided into groups with 6 mice in each group) were administered cyclophosphamide one week before infection, and then inoculated intranasally with M. abscessus CIP108297 (10^7 CFU/mouse). Three days after infection, the mice were subsequently treated with 10 mg/kg of the compound of Example 4 or GSK656 administered daily by subcutaneous, or 100 mg/kg linezolid (an approved antibiotic) or 200 mg/kg clarithromycin (an approved antibiotic) administered daily by oral gavage. […] This may be attributed to the surprising finding of lower MBC in the compound of Example 4.

[3] = Rat PK model, intravenous or oral gavage; format: in vivo, SD rats; conditions: 5 mg/kg, parent compound Example 4 quantified
Text: To further elucidate the therapeutic potential of drug compounds, pharmacokinetic (PK) data is often used to establish key parameters predictive of a therapy outcome, such as the area under the curve (AUC) of a plot monitoring the change in systemic drug concentration over time. A higher AUC value indicates a greater exposure to the drug, commonly associated with a greater therapeutic potential due to a higher amount of drug available to combat the infection. In contrast, a lower AUC value indicates a reduced exposure to the drug, resulting in a reduced amount of antibiotic available to combat bacterial infections. To that end, the compounds described herein were tested in the rat PK model of oral administration performed analogously to the methods described in the monograph Current Protocols in Pharmacology, 2005, 7.1.1-7.1.26, John Wiley & Sons, Inc.
All the compounds were administered to SD rats (The rats were randomly divided into groups with 3 rats in each group) by intravenous or oral gavage. The prodrugs convert to the parent drug molecule in vivo. Therefore, only the parent compound Example 4 was analyzed and quantified in all test samples. […] Furthermore, based on the known comparison of rodent tests to human data (such as known species-to-species PK scaling), this is possible with a lower dosage for therapy in humans.

[4] = Lung distribution study in mouse; format: in vivo, Balb/C mouse; conditions: 10 mg/kg iv
[5] = 20 clinical isolates of M. abscessus complex

[(2S,6R)-2-(Aminomethyl)-4-bora-3,5,8-trioxatricyclo[7.3.1.04,13]trideca-1(12),10-dien-6-yl]methanol hydrochloride [Example 4]
MIC (M. scrofulaceum): 0.25 µg/mL
MIC (M. gordonae): 0.5 µg/mL
MIC (M. avium): 2 µg/mL
MIC (M. intercelleulare): 2 µg/mL
MIC (M. abscessus): 0.063 µg/mL
MIC (M. fortuitum): 0.125 µg/mL
MIC (M. peregrinum): 0.125 µg/mL
MIC (M. smegmatis): 0.125 µg/mL
MIC (M. massiliense): 0.063 µg/mL
fold more potent than GSK656 (MIC) (Mycobacteria pathogens; M. avium and M. intercelleulare): 4 fold
MIC range (Mycobacteria pathogens; across M. scrofulaceum, M. gordonae, M. avium, M. abscessus): 0.063 to 2 µg/mL
MIC range (Mycobacteria pathogens; rapidly growing mycobacteria (RGM): M. abscessus): 0.063 to 0.125 µg/mL
MIC [1]: 0.063 µg/mL
MIC ([1]; clinical isolate A35): 0.063 µg/mL
MIC ([1]; clinical isolate A51): 0.063 µg/mL
MIC ([1]; clinical isolate A197): 0.063 µg/mL
MIC ([1]; clinical isolate A215): 0.063 µg/mL
MIC ([1]; clinical isolate A217): 0.063 µg/mL
MIC ([1]; clinical isolate A222): 0.063 µg/mL
MIC ([1]; clinical isolate A255): 0.063 µg/mL
MIC ([1]; clinical isolate A311): 0.063 µg/mL
MIC ([1]; clinical isolate G73): 0.063 µg/mL
MIC ([1]; clinical isolate G74): 0.063 µg/mL
MIC ([1]; clinical isolate G87): 0.063 µg/mL
MIC ([1]; clinical isolate G110): 0.063 µg/mL
MIC ([1]; clinical isolate G164): 0.063 µg/mL
MIC ([1]; clinical isolate G182): 0.063 µg/mL
MBC [2]: 0.125 µg/mL
MBC compared with GSK656 [2, 5]: much lower MBC against all isolates tested
bactericidal/bacteriostatic classification over the isolates [2, 5]: bactericidal against half of the isolates
MBC ([2]; clinical isolate A35): 0.25 µg/mL
Classification ([2]; clinical isolate A35): Bactericidal (bactericidal if the MBC/MIC ratio was <4)
MBC ([2]; clinical isolate A51): 0.25 µg/mL
Classification ([2]; clinical isolate A51): Bactericidal (bactericidal if the MBC/MIC ratio was <4)
MBC ([2]; clinical isolate A197): 1 µg/mL
Classification ([2]; clinical isolate A197): Bacteriostatic (bacteriostatic if the ratio was >4)
MBC ([2]; clinical isolate A213): 0.25 µg/mL
Classification ([2]; clinical isolate A213): Bactericidal (bactericidal if the MBC/MIC ratio was <4)
MBC ([2]; clinical isolate A215): 0.5 µg/mL
Classification ([2]; clinical isolate A215): Bacteriostatic (bacteriostatic if the ratio was >4)
MBC ([2]; clinical isolate A217): 0.5 µg/mL
Classification ([2]; clinical isolate A217): Bacteriostatic (bacteriostatic if the ratio was >4)
MBC ([2]; clinical isolate A222): 0.25 µg/mL
Classification ([2]; clinical isolate A222): Bactericidal (bactericidal if the MBC/MIC ratio was <4)
Classification ([2]; clinical isolate A232): Bactericidal (bactericidal if the MBC/MIC ratio was <4)
MBC ([2]; clinical isolate A255): 0.25 µg/mL
Classification ([2]; clinical isolate A255): Bactericidal (bactericidal if the MBC/MIC ratio was <4)
MBC ([2]; clinical isolate A268): 2 µg/mL
Classification ([2]; clinical isolate A268): Bacteriostatic (bacteriostatic if the ratio was >4)
MBC ([2]; clinical isolate A274): 2 µg/mL
Classification ([2]; clinical isolate A274): Bacteriostatic (bacteriostatic if the ratio was >4)
MBC ([2]; clinical isolate A311): 0.25 µg/mL
Classification ([2]; clinical isolate A311): Bactericidal (bactericidal if the MBC/MIC ratio was <4)
MBC ([2]; clinical isolate A353): 0.25 µg/mL
Classification ([2]; clinical isolate A353): Bactericidal (bactericidal if the MBC/MIC ratio was <4)
MBC ([2]; clinical isolate G73): 1 µg/mL
Classification ([2]; clinical isolate G73): Bacteriostatic (bacteriostatic if the ratio was >4)
MBC ([2]; clinical isolate G74): 1 µg/mL
Classification ([2]; clinical isolate G74): Bacteriostatic (bacteriostatic if the ratio was >4)
MBC ([2]; clinical isolate G87): 0.5 µg/mL
Classification ([2]; clinical isolate G87): Bacteriostatic (bacteriostatic if the ratio was >4)
MBC ([2]; clinical isolate G104): 0.25 µg/mL
Classification ([2]; clinical isolate G104): Bactericidal (bactericidal if the MBC/MIC ratio was <4)
MBC ([2]; clinical isolate G110): 1 µg/mL
Classification ([2]; clinical isolate G110): Bacteriostatic (bacteriostatic if the ratio was >4)
MBC ([2]; clinical isolate G164): 0.25 µg/mL
Classification ([2]; clinical isolate G164): Bactericidal (bactericidal if the MBC/MIC ratio was <4)
MBC ([2]; clinical isolate G182): 1 µg/mL
Classification ([2]; clinical isolate G182): Bacteriostatic (bacteriostatic if the ratio was >4)
reduction in bacteria in the lungs compared to the untreated groups (M. abscessus CIP108297; 10 mg/kg daily subcutaneous, treatment from 3 days after infection, lung CFU at 2 weeks post-infection): ~7.8 log 10 CFU
lung pathology, H&E stained tissue sections (M. abscessus CIP108297; 2-weeks post-infection, treated group): pathologic changes were rare and lung lesions were negligible
organisms in the lungs compared to animals treated with GSK656 (M. abscessus CIP108297; both 10 mg/kg daily subcutaneous, 2 weeks post-infection): reduced markedly
AUC ([3]; iv): 5661 ng·h/mL
Cmax ([3]; iv): 6776 ng/mL
AUC ([3]; oral): 856 ng·h/mL
Cmax ([3]; oral): 139 ng/mL
Oral bioavailability ([3]; oral): 15%
AUC ratio (lung/plasma) ([4]; analyte Example 4): 2.39
AUClast ([4]; analyte Example 4, lung): 12822 ng·h/g
t1/2 ([4]; analyte Example 4, lung): 1.46 h
AUClast ([4]; analyte Example 4, plasma): 5359 ng·h/mL
t1/2 ([4]; analyte Example 4, plasma): 1.87 h
